Measured values as given in US20230272357A1, “METHODS OF GENOME EDITING INCLUDING CONTROLLED OPENING OF CHROMATIN” (Wisconsin Alumni Research Foundation, priority 2021, published 2023).

What was measured:
Type in all cases: cell-based, human
[1] = tested on: iPSCs; assay: iPSC morphology during long-term culture of edited cells; details: long-term culture of the edited cells, 6.25 ng/mL TSA
[2] = tested on: iPSCs; assay: Single-cell ATAC sequencing, local chromatin accessibility; details: upon TSA treatment, data not shown
Description: Briefly, 1,50,000 cells were added to a 2 mL microcentrifuge tube and centrifuged at 300 g for 45 min at 4° C. The supernatant was removed without disrupting the cell pellet, and 100 μL chilled Lysis Buffer (10 mM Tris-HCl (pH 7.4), 10 mM NaCl, 3 mM MgCl2, 0.1% Tween-20, 0.1% Nonidet® P40 Substitute, 0.01% digitonin and 1% BSA) was added and mixed 10 times. The microcentrifuge tube was then incubated on ice for 5 min. Following lysis, 1 ml chilled Wash Buffer (10 mM Tris-HCl (pH 7.4), 10 mM NaCl, 3 mM MgCl2, 0.1% Tween-20 and 1% BSA) was added and the resulting solution was mixed 5 times. Nuclei were centrifuged at 500 g for 5 min at 4° C. and the supernatant was removed without disrupting the nuclei pellet. Nuclei were resuspended in chilled Diluted Nuclei Buffer (10× Genomics; 2000153) at approximately 6,000 nuclei per μL. The resulting nuclei concentration was then determined with a Countess® II FL Automated Cell Counter using trypan blue inclusion. Nuclei were then immediately used to generate scATAC-seq libraries according to the Chromium Single Cell ATAC Reagent Kits User Guide v1.1 (10× Genomics; 000209 Rev D). Libraries were sequenced using the Illumina NovaSeq 6000 system using S1 flow cell and target depth of 30k-37k reads/nuclei. FASTQ files were aligned with Cellranger ATAC 2.0 to custom reference Human GRCh38 genome. […]

[3] = tested on: HIST1H2BJ-GFP locus; assay: CRISPR-Cas9 gene editing efficiency by flow cytometry (GFP- cells)
Description: SpyCas9 RNP preparation: RNPs were produced by complexing a two-component gRNA to SpyCas9. In brief, tracr-RNA and crRNA were ordered from IDT, suspended in nuclease-free duplex buffer at 100 μM, and stored in single-use aliquots at −20° C. tracrRNA and crRNA were thawed, and 0.0625 μL of each component was mixed 1:1 by volume and annealed by incubation at room temperature for 5 minutes to form a 50 μM sgRNA solution for each well of a 96 well plate. Recombinant sNLS-SpCas9-sNLS Cas9 (Aldevron, 10 mg/mL) was added to the complexed gRNA at a 1:1 molar ratio (1000 ng/well, Total 0.1 μL) and incubated for 5 minutes at room temperature to form RNP.
RNP delivery: iPSCs were singularized using Accutase™ and counted using a Countess® II FL Automated Cell Counter (Thermo Fisher Scientific) with 0.4% Trypan Blue viability stain (Thermo Fisher Scientific). iPSCs were then seeded at 15,000 cells/well on 96 well glass bottom plates (Cellvis) in mTeSR1 (WiCell) and 10 μM ROCK inhibitor (Y27632, Selleckchem), two days before lipofection or electroporation. On the following day, iPSCs were treated with TSA (0-200 ng/mL) for 16-24 hours. iPSC lipofections were performed using 0.5 μL Lipofectamine Stem Cell Reagent/well (1000 ng Cas9/well and sgRNA at 1:1 molar ratio). Cells remained undisturbed for 48 hours and were then passaged 1:4 using ReLeSR™ solution followed by daily mTeSR1 media changes for 4 additional days before downstream analysis.
Flow cytometry and fluorescence activated cell sorting: Flow cytometry was performed on singularized iPSCs using Attune™ Nxt flow cytometer (ThermoFisher Scientific) and analyzed using the FlowJo Software. Ghost Dye™ Red 780, ATTO 550, and GFP fluorescence were detected using 780/60, 585/16, and 530/30 filters in […] positions, respectively. Gates were established by running singularized untransfected iPSCs. The percentage of viable cells was calculated as the ratio of Ghost Dye™ Red 780-cells to the total number of single cells. Transfection efficiency was calculated as the percentage of ATTO 550+ cells to the total number of viable cells on day 2 post-transfection. Gene editing efficiency was calculated as the percentage of GFP-cells to the total number of viable cells on day 6 post-transfection. For the sorting experiments, iPSCs were singularized 6 days post-transfection using Accutase™, washed with PBS+20 μM ROCK inhibitor, centrifuged at 300 g for 5 minutes. Ghost Dye™ Red 780 viability dye (Tonbo Biosciences) was then added at 1:1000 concentration for 20 minutes at room temperature. Cells were washed again with PBS+20 μM ROCK inhibitor, spun down at 300 g for 5 minutes, and resuspended in 300 μL of FACS buffer (PBS+2% BSA+20 μM ROCK inhibitor). GFP-cells were then sorted into tubes containing mTeSR1+20 μM ROCK inhibitor, and seeded onto Matrigel®-coated 6 well polystyrene plates at 100 cells/well to obtain single-cell iPSC clones.
A simple, yet robust, workflow has been developed to introduce mutations in iPSCs without extensive use of deep sequencing (FIG. 1A). A mono-allelic mEGFP tagged HIST1H2BJWTC-11 human iPSC line (tag at C-terminus) was used as it provides two-fold advantages. […] Second, these iPSCs enable in situ live imaging of their cell nuclei to monitor chromatin changes during the process of CRISPR-Cas9 gene editing. An Alt-R® CRISPR-Cas9 2-part single guide RNA (sgRNA) system (IDT) was employed, which consists of 1) crRNA sequence to target the mEGFP locus in iPSCs (FIG. 1B), and 2) ATTO™ 550 fluorescent dye labelled tracrRNA that binds to Cas9. A range of TSA concentrations (0-200 ng/mL) were tested on iPSCs to determine the effect of TSA on cell viability. […] TSA concentrations of 0, 3.13, 6.25, and 12.5 ng/mL for further studies. Next, a range of TSA treatment durations (0-24 hours) were assessed and two methods for delivery for the Cas9 RNP complex (lipofection and electroporation) were also assessed to determine the optimal conditions for gene editing. […]

## CC(/C=C/C(=O)NO)=C\[C@@H](C)C(=O)c1ccc(N(C)C)cc1 [TSA, Trichostatin A]
[1]
  iPSC morphology: no changes
[2]
  Local chromatin accessibility at the off-target sites: no significant increase
  Local chromatin accessibility at the on-target sites: increase
[3]; TSA 0-12.5 ng/mL, FIG. 1D
  Gene editing efficiency (% GFP- cells/viable cells) upon TSA treatment: increases
[3]; TSA 6.25 ng/mL, day 6 after Cas9 RNP delivery
  Increase in gene editing efficiency (% GFP- cells/viable cells): 2-3 fold
[3]; TSA 12.5 ng/mL vs 6.25 ng/mL
  Gene editing efficiency on additional increase of TSA concentration: did not increase the editing efficiency further
[3]; chromatin decondensation via TSA, summary statement
  Increase in gene editing efficiency of iPSCs: 2-3 fold
[3]; concentrations up to 6.25 ng/mL, day 6
  Relation between gene editing efficiency (% GFP- cells/viable cells) and dose of TSA: positive correlation
[3]; durations 0-24 hours assessed, data not shown
  TSA treatment duration yielding the highest gene editing efficiencies: 20 h
